Non-standard residues stand in square brackets, D forms with d. Residues, ends and D or L forms follow the SMILES beside them. *: point of attachment. Acetyl(2-naphthyl) = O=C(Cc1ccc2ccccc2c1)*
Tests used:
[1] = In vivo retention of Cy5.5-labeled hydrogel/formula (fluorescence imaging); settings: 50 µL subcutaneous inguinal, 8-weeks old female NOD mice, imaged every 6 h at 640 nm excitation
Description: 8‐weeks old female NOD mice were subcutaneously injected with a volume of 50 µL Cy5.5‐labeled peptide hydrogels/formulas in inguinal region. In vivo peptide retention was observed every 6 h at 640 nm excitation wavelength via Cri Maestro In‐vivo imaging System (Xenogen, IVIS Lumina II).

[2] = Gelation test and TEM of hydrogels/formulas; format: physicochemical; settings: after heating-cooling
From the text: We first tested the gelation properties of Nap‐G^dF^dF^dY and controlled peptides (Nap‐GFFY, Nap‐^dF^dF, Nap‐G^dF^dA^dY, and Ac‐G^dF^dF^dY). […] The nanostructures of these hydrogels and solutions were subsequently observed by transmission electron microscopy (TEM). […] The diameter of its nanofiber was about 12 nm. […] Insulin mimicking requires a specific conformation of the self‐assembled peptide Nap‐G^dF^dF^dY for in vivo performance, indicating a secondary structure examination is required. We obtained the circular dichroism (CD) spectrum of peptide within the hydrogel at 37 °C.
(§1) All peptides in the study were synthesized by standard solid‐phase peptide synthesis (SPPS), and purified by high performance liquid chromatography (HPLC). Hydrogels/formulas were prepared by heating–cooling method. Negative staining technique was used to observe the nanostructures of materials by using TEM (HITACHI HT7700 Exalens). CD spectrum were measured by a BioLogic (MOS‐450) system. Rheology test was carried out on an AR 2000ex system (TA instrument). The release behaviors of peptides was analyzed by liquid chromatograph (LC2020). Microscale thermophoresis and analysis of binding force was performed by using the Monolith NT.115 system (NanoTemper Technologies, Germany). All samples were tested at the temperature of 37 °C.

[3] = tested on: bone marrow derived dendritic cells (BMDCs); set-up: method as in PMID 31244959; settings: ref 16b; cited from earlier work
pancreatic islets = assay: Immunofluorescence of pancreatic islets (morphology, immune cell infiltration), prevention study; format: in vivo, NOD mice
Description: Female NOD mice (3 weeks of age) were immunized subcutaneously under the front left leg with Nap‐G^dF^dF^dY, Nap‐GFFY, Nap‐G^dF^dA^dY, Nap‐^dF^dF, Ac‐G^dF^dF^dY (1 mg mL^−1, 50–70 µL), and Alum+Ins2_9‐23 (50 µg) and endotoxin‐free PBS once a week for 5 consecutive weeks (from 3‐weeks old to 7‐weeks old) and maintained in specific pathogen free facilities for up to 36 or 52 weeks (n = 3–10 per group). Random plasma glucose level and body weight of all mice were noted weekly from week 8 till the end of experiment with an OneTouch Ultra blood glucose meter (Lifescan Inc., Milpitas, CA, USA). Mice were classified as diabetic if random plasma glucose level exceeded 11.1 mmol L^−1 for 3 consecutive weeks. IPGTT was performed in all treatment groups at week 14, week 20, and week 36. Serum samples were obtained from all mice at the age of week 14, week 20, and week 36 for cytokine chip microarray, which was performed by the Beijing Genomics Institute. Serum insulin level was determined in 10 µL serum samples of each animal using a mouse insulin ELISA kit according to the manufacture's instruction.
Immunofluorescence staining was performed following procedures that were previously detailed.^[ ^18b,c ^] Pancreas were extracted and paraffin‐embedded before being sectioned (5 µm width) onto microscopic slides. For immunofluorescence staining, antigen retrieval was performed followed by exposure to primary antibodies at 4 ℃ overnight. The pancreas sections were then washed with PBS and staining with secondary antibody for 1–2 h at room temperature and examined under a fluorescence microscope (Olympus BX3‐25ND25, Japan).

[4] = Peptide release from hydrogel/solution; format: physicochemical; settings: within 12 h, 37 °C, LC (LC2020)
Description: as §1

T1D onset in NOD mice = assay: T1D prevention study, incidence of T1D onset; format: in vivo, female NOD mice; settings: 1 mg mL^-1, 50-70 µL s.c. once a week for 5 weeks from 3 weeks of age
Description: Female NOD mice were inoculated with different hydrogel formulations 3 weeks of age. PBS and aluminum hydroxide+Ins2_9‐23 (Alum+Ins2_9‐23) were used as negative and positive controls, respectively. Random blood glucose (RBG) levels were measured weekly and mice with RBG levels above 11.1 mmol L^−1 for more than 3 consecutive weeks were considered “diabetic” in the present study.

[5] = molecular target: human insulin receptor protein (Homo sapiens, UniProt P06213); assay: Microscale thermophoresis (MST) binding to insulin receptor; settings: Monolith NT.115, Recombinant Human Insulin R/CD220 (aa 28-944), 37 °C, read-out: dissociation constant (K D) to human insulin receptor protein
Description: 2‐Cl‐trityl chloride resin (1.1 mmol g^−1) was obtained from Nankai University resin Co., Ltd. Fmoc‐amino acids and o‐benzotriazol‐1‐yl‐N,N,N′,N′‐tetramethyluronium hexafluorophosphate (HBTU) were acquired from GL Biochem (Shanghai). Hydogels were prepared and respective endotoxin levels of formula were tested as previously reported.^[ ^23 , ^24 ^] Ins2_9‐23 peptide (SHLVEALYLVCGERGR; endotoxins <1 EU mg^−1) was supplied by Bankpeptide (Hefei, China). The BD Pharmingen FoxP3 staining kit was from (BD Biosciences, Beijing, China). Aluminum hydroxide was purchased from Sigma‐Aldrich (Shanghai, China). Antibodies used for flow cytometry analysis were purchased from eBioscience (CA, USA) and antibodies used for immunofluorescence staining were obtained from Abcam (Shanghai, China). Cytokine chip microarray was performed by Beijing Genomics Institute (Beijing, China). Recombinant Human Insulin R/CD220 (aa 28‐944) Protein was ordered from R&D Systems (Shanghai, China). Mouse Insulin EZRMI‐13 ELISA kit was from Millipore (Merck, UK). […]
All peptides in the study were synthesized by standard solid‐phase peptide synthesis (SPPS), and purified by high performance liquid chromatography (HPLC). […] CD spectrum were measured by a BioLogic (MOS‐450) system. […] The release behaviors of peptides was analyzed by liquid chromatograph (LC2020). […]

[6] = tested on: OVA-induced immune responses; settings: ref 16a; cited from earlier work
From the text: Poor tolerance induction was also observed from the Nap‐GFFY group (Figure 2A, red dotted line; 60% T1D onset). […] In the present study, when both isoforms of Nap‐GFFY were used, the lack of stability and adjuvant potency of L‐GFFY resulted both in reduced antigenic and adjuvant impact, rendering the Nap‐GFFY formulation less eff ... || Supramolecular peptide hydrogel has, in the past 5 years, been extensively investigated as immune adjuvant to improve efficacy of antigen presentation. By using peptide hydrogel, which functions both as antigen depot and immune adjuvant, it eliminates the likely protein‐induced hypersensitivity in vivo and the need for additional adjuvant^[ ^15 , ^37 ^] […] Because the peptide sequence GFFY is conserved in multiple self‐antigens of autoimmune diabetes, we now have assessed its poten ...

Compound | in vivo retention time (fluorescence signal) [1] | gelation property [2] | CD40/CD80 expression on BMDCs [3] | TNF-α in cell culture supernatant of BMDCs [3] | islet immune cell infiltration (pancreatic islets; immunofluorescence, prevention study) | immune cell infiltration per islet over Nap-G^dF^dF^dY (pancreatic islets; over Nap-G^dF^dF^dY, p < 0.01) [% over Nap-GdFdFdY] | average % of immune cell infiltration per islet (pancreatic islets; per islet, mean ± s.e.m., n = 5-20) [% per islet] | peptide released from gel [4] | T1D onset (T1D onset in NOD mice) [%] | Kd [5] [µM] | in vivo stability vs L-isoform Nap-GFFY [6]
Nap‐GFFY | about 30 h | could swiftly form transparent hydrogels | significant increase expression of CD40/CD80 | elevated | substantial immune cell infiltration | 248 ± 25 | 38.5 ± 3.8 | about 40% | 60 | – | –
O=C(Cc1ccc2ccccc2c1)NCC(=O)N[C@H](Cc1ccccc1)C(=O)N[C@H](Cc1ccccc1)C(=O)N[C@H](Cc1ccc(O)cc1)C(=O)O [Nap‐G^dF^dF^dY] ({Acetyl(2-naphthyl)}-G[dF][dF][dY]-OH) | about 36 h | – | – | – | – | – | – | – | – | 53.9 | preferentially more stable in vivo
O=C(Cc1ccc2ccccc2c1)N[C@H](Cc1ccccc1)C(=O)N[C@H](Cc1ccccc1)C(=O)O [Nap‐^dF^dF] | about 30 h | – | – | – | – | – | – | – | – | – | –

From paper PMC8132061, “An Insulin‐Inspired Supramolecular Hydrogel for Prevention of Type 1 Diabetes” (Advanced Science, 2021)
